Data from ChEMBL document CHEMBL1122817, “Synthesis and biological activity of substituted [[3(S)-(acylamino)-2-oxo-1-azetidinyl]oxy]acetic acids. A new class of heteroatom-activated beta-lactam antibiotics” (1985).

Legend:
Escherichia coli [1] = test: Inhibitory activity against Escherichia coli X580 at 1 mg/mL concentration using Agar disk plate assay; type: functional
Escherichia coli [2] = test: Inhibitory activity against Escherichia coli X161 at 1 mg/mL concentration using Agar disk plate assay; type: functional
Escherichia coli [3] = test: Inhibitory activity against Escherichia coli X161M at 1 mg/mL concentration using Agar disk plate assay; type: functional
Proteus vulgaris [4] = test: Inhibitory activity against Proteus vulgaris X45 at 1 mg/mL concentration using Agar disk plate assay; type: functional
[5] = test system: Salmonella enterica subsp. enterica serovar Gallinarum; test: Inhibitory activity against Salmonella gallinarum X142 at 1 mg/mL concentration using Agar disk plate assay; type: functional
Serratia marcescens [6] = test: Inhibitory activity against Serratia marcescens X99 at 1 mg/mL concentration using Agar disk plate assay; type: functional
[7] = test system: Acinetobacter calcoaceticus; test: Minimum inhibitory concentration against Acinetobacter calcoaceticus AC12; type: functional
[8] = test system: Geobacillus stearothermophilus; test: Inhibitory activity against Bacillus Stearothermophilus C451 at 10 mg/mL concentration using Agar disk plate assay; type: functional
Bacillus subtilis [9] = test: Inhibitory activity against Bacillus Subtilis X12 at 10 mg/mL concentration using Agar disk plate assay; type: functional
Bacillus subtilis [10] = test: Inhibitory activity against Bacillus Subtilis X12M at 10 mg/mL concentration using Agar disk plate assay; type: functional
Citrobacter freundii = test: Minimum inhibitory concentration against Citrobacter freundii CF17; type: functional
Escherichia coli [11] = test: Minimum inhibitory concentration against Escherichia coli N10; type: functional
Escherichia coli [12] = test: Minimum inhibitory concentration against Escherichia coli TEM; type: functional
Klebsiella aerogenes [13] = test: Minimum inhibitory concentration against Enterobacter aerogenes C32; type: functional
Escherichia coli [14] = test: Inhibitory activity against Escherichia coli X580 at 10 mg/mL concentration using Agar disk plate assay; type: functional
Escherichia coli [15] = test: Inhibitory activity against Escherichia coli X161 at 10 mg/mL concentration using Agar disk plate assay; type: functional
Escherichia coli [16] = test: Inhibitory activity against Escherichia coli X161M at 10 mg/mL concentration using Agar disk plate assay; type: functional
Enterobacter cloacae [17] = test: Minimum inhibitory concentration against Enterobacter cloacae 265A; type: functional
Enterobacter cloacae [18] = test: Minimum inhibitory concentration against Enterobacter cloacae EB5; type: functional
Haemophilus influenzae [19] = test: Minimum inhibitory concentration against Haemophilus influenza 76; type: functional
Haemophilus influenzae [20] = test: Minimum inhibitory concentration against Haemophilus influenza C.L; type: functional
Klebsiella pneumoniae [21] = test: Minimum inhibitory concentration against Klebsiella pneumoniae KAE; type: functional
Klebsiella pneumoniae [22] = test: Minimum inhibitory concentration against Klebsiella pneumoniae X26; type: functional
Klebsiella pneumoniae [23] = test: Minimum inhibitory concentration against Klebsiella pneumoniae X68; type: functional
Morganella morganii = test: Minimum inhibitory concentration against Proteus morganii PR15; type: functional
Pseudomonas aeruginosa [24] = test: Minimum inhibitory concentration against Pseudomonas aeruginosa (4 strains); type: functional
Proteus vulgaris [25] = test: Inhibitory activity against Proteus vulgaris X45 at 10 mg/mL concentration using Agar disk plate assay; type: functional
Pseudomonas aeruginosa [26] = test: Inhibitory activity against Pseudomonas aeruginosa X48 at 10 mg/mL concentration using Agar disk plate assay; type: functional
Ralstonia solanacearum = test: Inhibitory activity against Pseudomonas solanacearum X185 at 10 mg/mL concentration using Agar disk plate assay; type: functional
Proteus inconstans = test: Minimum inhibitory concentration against Proteus inconstans PR33; type: functional; details: Providencia alcalifaciens
Providencia rettgeri = test: Minimum inhibitory concentration against Proteus rettgeri C24; type: functional
Salmonella typhi [27] = test: Minimum inhibitory concentration against Salmonella typhi 1335; type: functional, Salmonella enterica subsp. enterica serovar Typhi; details: Salmonella enterica
Salmonella typhi [28] = test: Minimum inhibitory concentration against Salmonella typhi X514; type: functional, Salmonella enterica subsp. enterica serovar Typhi; details: Salmonella enterica
Micrococcus luteus = test: Inhibitory activity against Sarcina lutea X186 at 10 mg/mL concentration using Agar disk plate assay; type: functional
[29] = test system: Salmonella enterica subsp. enterica serovar Gallinarum; test: Inhibitory activity against Salmonella gallinarum X142 at 10 mg/mL concentration using Agar disk plate assay; type: functional
Serratia marcescens [30] = test: Minimum inhibitory concentration against Serratia marcescens SE3; type: functional
Staphylococcus aureus [31] = test: Inhibitory activity against Staphylococcus aureus X1 at 10 mg/mL concentration using Agar disk plate assay; type: functional
Serratia marcescens [32] = test: Inhibitory activity against Serratia marcescens X99 at 10 mg/mL concentration using Agar disk plate assay; type: functional
[33] = test system: Staphylococcus epidermidis; test: Minimum inhibitory concentration against Staphylococcus epidermidis (2 strains); type: functional
Streptococcus pyogenes = test: Minimum inhibitory concentration against Streptococcus pyogenes C203; type: functional
Streptococcus pneumoniae = test: Minimum inhibitory concentration against Streptococcus pneumoniae Park I; type: functional
Streptococcus = test: Minimum inhibitory concentration against Streptococcus sp. Group D (2 strains); type: functional
Staphylococcus aureus [34] = test: Minimum inhibitory concentration against Staphylococcus aureus (4 strains); type: functional
Klebsiella aerogenes [35] = test: Minimum inhibitory concentration against Enterobacter aerogenes EB 17; type: functional
Escherichia coli [36] = test: Minimum inhibitory concentration against Escherichia coli EC14; type: functional
Serratia marcescens [37] = test: Minimum inhibitory concentration against Serratia marcescens X99; type: functional

CO/N=C(\C(=O)N[C@@H]1C(=O)N(O[C@H](OC(C)=O)C(=O)[O-])[C@H]1C)c1csc(N)n1.[K+]
Zone of inhibition (Escherichia coli [1]): 46 mm | Zone of inhibition (Escherichia coli [2]): 17 mm | Zone of inhibition (Escherichia coli [3]): 30 mm | Zone of inhibition (Proteus vulgaris [4]): 28 mm | Zone of inhibition [5]: 25 mm | Zone of inhibition (Serratia marcescens [6]): 24 mm

CO/N=C(\C(=O)N[C@@H]1C(=O)N(OCC(=O)[O-])[C@H]1C)c1csc(N)n1.[K+]
MIC [7]: > 64 µg/mL | Zone of inhibition [8]: 24 mm | Zone of inhibition (Bacillus subtilis [9]): 13 mm | Zone of inhibition (Bacillus subtilis [10]): 19 mm | MIC (Citrobacter freundii): 2 µg/mL | MIC (Escherichia coli [11]): 0.25 µg/mL | MIC (Escherichia coli [12]): 0.5 µg/mL | MIC (Klebsiella aerogenes [13]): 0.25 µg/mL | Zone of inhibition (Escherichia coli [14]): 56 mm | Zone of inhibition (Escherichia coli [15]): 35 mm | Zone of inhibition (Escherichia coli [16]): 44 mm | MIC (Enterobacter cloacae [17]): > 64 µg/mL | MIC (Enterobacter cloacae [18]): 1 µg/mL | MIC (Haemophilus influenzae [19]): 1 µg/mL | MIC (Haemophilus influenzae [20]): 1 µg/mL | MIC (Klebsiella pneumoniae [21]): 32 µg/mL | MIC (Klebsiella pneumoniae [22]): 0.25 µg/mL | MIC (Klebsiella pneumoniae [23]): 0.25 µg/mL | MIC (Morganella morganii): 2 µg/mL | MIC (Pseudomonas aeruginosa [24]): > 64 µg/mL | Zone of inhibition (Proteus vulgaris [25]): 36 mm | Zone of inhibition (Pseudomonas aeruginosa [26]): 15 mm | Zone of inhibition (Ralstonia solanacearum): 20 mm | MIC (Proteus inconstans): 0.125 µg/mL | MIC (Providencia rettgeri): 0.125 µg/mL | MIC (Salmonella typhi [27]): 0.25 µg/mL | MIC (Salmonella typhi [28]): 0.125 µg/mL | Zone of inhibition (Micrococcus luteus): 22 mm | Zone of inhibition [29]: 30 mm | MIC (Serratia marcescens [30]): 1 µg/mL | Zone of inhibition (Staphylococcus aureus [31]): 19 mm | Zone of inhibition (Serratia marcescens [32]): 33 mm | MIC [33]: > 64 µg/mL | MIC (Streptococcus pyogenes): 16 µg/mL | MIC (Streptococcus pneumoniae): 32 µg/mL | MIC (Streptococcus): > 64 µg/mL | MIC (Staphylococcus aureus [34]): > 64 µg/mL | MIC (Klebsiella aerogenes [35]): 0.25 µg/mL | MIC (Escherichia coli [36]): 0.25 µg/mL | MIC (Serratia marcescens [37]): 0.5 µg/mL

C[C@H]1[C@H](NC(=O)Cc2csc(N)n2)C(=O)N1OCC(=O)[O-].[K+]
Zone of inhibition (Bacillus subtilis [9]): 12 mm | Zone of inhibition (Bacillus subtilis [10]): 21 mm | Zone of inhibition (Escherichia coli [14]): 36 mm | Zone of inhibition (Escherichia coli [15]): 24 mm | Zone of inhibition (Escherichia coli [16]): 25 mm | Zone of inhibition (Proteus vulgaris [25]): 19 mm | Zone of inhibition (Micrococcus luteus): 15 mm | Zone of inhibition [29]: 22 mm | Zone of inhibition (Staphylococcus aureus [31]): 18 mm | Zone of inhibition (Serratia marcescens [32]): 23 mm

CO/N=C(/C(=O)N[C@@H]1C(=O)N(O[C@H](OC(C)=O)C(=O)[O-])[C@H]1C)c1csc(N)n1.[K+]
Zone of inhibition (Escherichia coli [1]): 38 mm | Zone of inhibition (Escherichia coli [2]): 26 mm | Zone of inhibition (Escherichia coli [3]): 28 mm | Zone of inhibition (Proteus vulgaris [4]): 25 mm | Zone of inhibition [5]: 17 mm | Zone of inhibition (Serratia marcescens [6]): 18 mm
